# Measured values taken from PubChem BioAssay (NCI).
#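 Method: 48-hour compound exposure of cells in 96-well plates, five concentrations, linear interpolation of endpoints. GI50 = concentration required for 50% inhibition of growth. TGI marks complete inhibition of growth.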
# Assays:
# Test in all cases: DTP human tumour cell line panel, 48 h
# SF-268 CNS = test system: SF-268 CNS
# SK-MEL-2 melanoma = test system: SK-MEL-2 melanoma
# UO-31 renal = test system: UO-31 renal
# DU-145 prostate = test system: DU-145 prostate
# NCI-H460 lung = test system: NCI-H460 lung
# SK-OV-3 ovarian = test system: SK-OV-3 ovarian
# SNB-19 CNS = test system: SNB-19 CNS
# HCC-2998 colon = test system: HCC-2998 colon
# SF-539 CNS = test system: SF-539 CNS
# IGROV1 ovarian = test system: IGROV1 ovarian
# NCI-H226 lung = test system: NCI-H226 lung
# SNB-75 CNS = test system: SNB-75 CNS
# HCT-15 colon = test system: HCT-15 colon
# OVCAR-3 ovarian = test system: OVCAR-3 ovarian
# NCI-H23 lung = test system: NCI-H23 lung
# KM12 colon = test system: KM12 colon
# HL-60(TB) leukemia = test system: HL-60(TB) leukemia
# MDA-MB-231 breast = test system: MDA-MB-231 breast
# SR leukemia = test system: SR leukemia
# 786-0 renal = test system: 786-0 renal
# A549 NSCLC = test system: A549 NSCLC
# OVCAR-8 ovarian = test system: OVCAR-8 ovarian
# SK-MEL-5 melanoma = test system: SK-MEL-5 melanoma
# UACC-257 melanoma = test system: UACC-257 melanoma
# MALME-3M melanoma = test system: MALME-3M melanoma
# RPMI-8226 leukemia = test system: RPMI-8226 leukemia
# NCI-H522 lung = test system: NCI-H522 lung
# LOX IMVI melanoma = test system: LOX IMVI melanoma
# OVCAR-5 ovarian = test system: OVCAR-5 ovarian
# T-47D breast = test system: T-47D breast
# SN12C renal = test system: SN12C renal
# SK-MEL-28 melanoma = test system: SK-MEL-28 melanoma
# SW-620 colon = test system: SW-620 colon
# SF-295 CNS = test system: SF-295 CNS
# TK-10 renal = test system: TK-10 renal
# MDA-MB-435 = test system: MDA-MB-435
# CCRF-CEM leukemia = test system: CCRF-CEM leukemia
# HT29 colon = test system: HT29 colon
# ACHN renal = test system: ACHN renal
# HOP-62 NSCLC = test system: HOP-62 NSCLC
# A498 renal = test system: A498 renal
# NCI/ADR-RES ovarian = test system: NCI/ADR-RES ovarian
# RXF 393 renal = test system: RXF 393 renal
# OVCAR-4 ovarian = test system: OVCAR-4 ovarian
# MCF7 breast = test system: MCF7 breast
# K-562 leukemia = test system: K-562 leukemia
# PC-3 prostate = test system: PC-3 prostate
# CAKI-1 renal = test system: CAKI-1 renal
# HCT-116 colon = test system: HCT-116 colon
# HOP-92 NSCLC = test system: HOP-92 NSCLC
# M14 melanoma = test system: M14 melanoma
# HS 578T breast = test system: HS 578T breast
# MOLT-4 leukemia = test system: MOLT-4 leukemia
# BT-549 breast = test system: BT-549 breast
# UACC-62 melanoma = test system: UACC-62 melanoma
# U251 CNS = test system: U251 CNS
# COLO 205 colon = test system: COLO 205 colon
smiles,measurement,setting,value
O=C1NC(=NCc2ccccc2Br)S/C1=C\c1ccc2ncccc2c1,GI50,SF-268 CNS,7.83 µM
same,TGI,SF-268 CNS,> 25 µM
same,GI50,SK-MEL-2 melanoma,7.66 µM
same,TGI,SK-MEL-2 melanoma,19 µM
same,GI50,UO-31 renal,8.08 µM
same,TGI,UO-31 renal,> 22 µM
same,GI50,DU-145 prostate,8.69 µM
same,TGI,DU-145 prostate,> 25 µM
same,GI50,NCI-H460 lung,6.1 µM
same,TGI,NCI-H460 lung,> 25 µM
same,GI50,SK-OV-3 ovarian,8.11 µM
same,TGI,SK-OV-3 ovarian,> 18.6 µM
same,GI50,SNB-19 CNS,9.4 µM
same,TGI,SNB-19 CNS,> 25 µM
same,GI50,HCC-2998 colon,24.3 µM
same,TGI,HCC-2998 colon,> 25 µM
same,GI50,SF-539 CNS,5.84 µM
same,TGI,SF-539 CNS,> 25 µM
same,GI50,IGROV1 ovarian,7.68 µM
same,TGI,IGROV1 ovarian,> 21.2 µM
same,GI50,NCI-H226 lung,8.06 µM
same,TGI,NCI-H226 lung,> 25 µM
same,GI50,SNB-75 CNS,3.82 µM
same,TGI,SNB-75 CNS,> 23.7 µM
same,GI50,HCT-15 colon,4.36 µM
same,TGI,HCT-15 colon,> 25 µM
same,GI50,OVCAR-3 ovarian,10 µM
same,TGI,OVCAR-3 ovarian,> 25 µM
same,GI50,NCI-H23 lung,11.5 µM
same,TGI,NCI-H23 lung,> 25 µM
same,GI50,KM12 colon,10.6 µM
same,TGI,KM12 colon,> 25 µM
same,GI50,HL-60(TB) leukemia,7.96 µM
same,TGI,HL-60(TB) leukemia,> 23.4 µM
same,GI50,MDA-MB-231 breast,15 µM
same,TGI,MDA-MB-231 breast,> 25 µM
same,GI50,SR leukemia,1.03 µM
same,TGI,SR leukemia,8.39 µM
same,GI50,786-0 renal,9.43 µM
same,TGI,786-0 renal,> 25 µM
same,GI50,A549 NSCLC,5.99 µM
same,TGI,A549 NSCLC,> 25 µM
same,GI50,OVCAR-8 ovarian,9.14 µM
same,TGI,OVCAR-8 ovarian,> 25 µM
same,GI50,SK-MEL-5 melanoma,10.4 µM
same,TGI,SK-MEL-5 melanoma,> 25 µM
same,GI50,UACC-257 melanoma,17.8 µM
same,TGI,UACC-257 melanoma,> 25 µM
same,GI50,MALME-3M melanoma,> 15.3 µM
same,TGI,MALME-3M melanoma,> 25 µM
same,GI50,RPMI-8226 leukemia,8.74 µM
same,TGI,RPMI-8226 leukemia,> 25 µM
same,GI50,NCI-H522 lung,6.22 µM
same,TGI,NCI-H522 lung,16.5 µM
same,GI50,LOX IMVI melanoma,4.7 µM
same,TGI,LOX IMVI melanoma,> 25 µM
same,GI50,OVCAR-5 ovarian,> 25 µM
same,TGI,OVCAR-5 ovarian,> 25 µM
same,GI50,T-47D breast,6.78 µM
same,TGI,T-47D breast,24.5 µM
same,GI50,SN12C renal,9.31 µM
same,TGI,SN12C renal,> 25 µM
same,GI50,SK-MEL-28 melanoma,> 20.5 µM
same,TGI,SK-MEL-28 melanoma,> 25 µM
same,GI50,SW-620 colon,6.71 µM
same,TGI,SW-620 colon,> 25 µM
same,GI50,SF-295 CNS,8.03 µM
same,TGI,SF-295 CNS,> 25 µM
same,GI50,TK-10 renal,14.8 µM
same,TGI,TK-10 renal,> 25 µM
same,GI50,MDA-MB-435,5.62 µM
same,TGI,MDA-MB-435,> 25 µM
same,GI50,CCRF-CEM leukemia,7.26 µM
same,TGI,CCRF-CEM leukemia,> 25 µM
same,GI50,HT29 colon,10.7 µM
same,TGI,HT29 colon,> 25 µM
same,GI50,ACHN renal,10.6 µM
same,TGI,ACHN renal,> 25 µM
same,GI50,HOP-62 NSCLC,5.93 µM
same,TGI,HOP-62 NSCLC,> 17.5 µM
same,GI50,A498 renal,5.55 µM
same,TGI,A498 renal,> 21.4 µM
same,GI50,NCI/ADR-RES ovarian,11.9 µM
same,TGI,NCI/ADR-RES ovarian,> 25 µM
same,GI50,RXF 393 renal,8.07 µM
same,TGI,RXF 393 renal,> 25 µM
same,GI50,OVCAR-4 ovarian,7.35 µM
same,TGI,OVCAR-4 ovarian,> 25 µM
same,GI50,MCF7 breast,4.07 µM
same,TGI,MCF7 breast,> 25 µM
same,GI50,K-562 leukemia,8.19 µM
same,TGI,K-562 leukemia,> 25 µM
same,GI50,PC-3 prostate,15.2 µM
same,TGI,PC-3 prostate,> 25 µM
same,GI50,CAKI-1 renal,7.18 µM
same,TGI,CAKI-1 renal,> 25 µM
same,GI50,HCT-116 colon,2.74 µM
same,TGI,HCT-116 colon,> 25 µM
same,GI50,HOP-92 NSCLC,6.89 µM
same,TGI,HOP-92 NSCLC,> 23.3 µM
same,GI50,M14 melanoma,11.1 µM
same,TGI,M14 melanoma,> 25 µM
same,GI50,HS 578T breast,6.28 µM
same,TGI,HS 578T breast,24.4 µM
same,GI50,MOLT-4 leukemia,10 µM
same,TGI,MOLT-4 leukemia,> 25 µM
same,GI50,BT-549 breast,6.32 µM
same,TGI,BT-549 breast,> 22.3 µM
same,GI50,UACC-62 melanoma,11.8 µM
same,TGI,UACC-62 melanoma,> 25 µM
same,GI50,U251 CNS,4.77 µM
same,TGI,U251 CNS,> 25 µM
same,GI50,COLO 205 colon,5.4 µM
same,TGI,COLO 205 colon,> 25 µM
